The values below come from article PMC5297809, “Design, Synthesis and Antifungal Activity Evaluation of New Thiazolin-4-ones as Potential Lanosterol 14α-Demethylase Inhibitors” (International Journal of Molecular Sciences, 2017).

For one series, the system named is four strains of Candida. As to the kind of experiment: broth microdilution MIC/MFC, summary over the four strains. In kind it is cell-based. Conditions: for fold more active than fluconazole: anti-Candida activity; for MFC / MIC: summary over two C. albicans, one C. krusei and one C. parapsilosis strain. On the technique in general: Broth dilution looks for growth in wells or tubes with falling amounts of substance.

Series [1] relates to Candida albicans ATCC 10231. As to the kind of experiment: cup-plate agar diffusion method, inhibition zone diameters. The class given is cell-based. As to conditions: ATCC10231, C. albicans ATCC 10231, 1 mg/mL in DMSO, 20 µg/well, mean of three ± SD, read-out: inhibition zone diameters. In general terms: Agar diffusion results depend on both activity and mobility in agar.
Series [2] relates to Candida albicans ATCC 10231. As to the kind of experiment: broth microdilution MIC/MFC. The class given is cell-based. As to conditions: for MFC: ATCC10231, C. albicans ATCC 10231, read-out: MFC; for MIC: ATCC10231, C. albicans ATCC 10231, read-out: MIC.
A further series concerns Candida krusei ATCC 6258. Briefly: broth microdilution MIC/MFC. The class given is cell-based. Conditions: Pichia kudriavzevii, ATCC6258, C. krusei ATCC 6258; for MFC: read-out: MFC; for MIC: read-out: MIC.
Series [3] concerns Candida parapsilosis ATCC 22019. Briefly: broth microdilution MIC/MFC. In kind it is cell-based. Conditions: Lodderomyces parapsilosis, ATCC22019, C. parapsilosis ATCC 22019; for MFC: read-out: MFC; for MIC: read-out: MIC.
The test system of series [4] is Candida albicans ATCC 18804. Briefly: broth microdilution MIC/MFC. In kind it is cell-based. As to conditions: for MFC: ATCC18804, C. albicans ATCC 18804, read-out: MFC; for MIC: ATCC18804, C. albicans ATCC 18804, read-out: MIC.
Series [5] can be described thus: lipophilicity by RP-TLC with PCA. In kind it is physicochemical. Details: key to P1 / P2: PCA scores of compounds computed from Rf data. As to conditions: for RM0: RP-TLC C18, water-i-propanol 45-65%, intercept, RM extrapolated to 0% organic modifier (lipophilicity); for b: RP-TLC regression slope (specific hydrophobic surface area); for P1: score of first principal component of Rf data, low P1 = highly lipophilic; for P2: score of second principal component of Rf data. As for the experimental part:
The lipophilic character of twenty thiazolin-4-one derivatives was assessed with the help of the principal component analysis (PCA) based on the reversed-phase thin-layer chromatography (RP-TLC) data.
The chromatographic behavior of the test compounds was studied on C18 silicagel bonded 60 RP-180F254S TLC (20 × 20 cm) plates, purchased from Merck (Darmstadt, Germany). The test compounds’ solutions (1 mg/mL) were prepared by dissolving the samples in DMSO (Merck, Darmstadt, Germany). The plates were manually spotted with 3 µL aliquots of each solution at 10 mm from the base and 5 mm from the edge of the plate, leaving a 10 mm distance between successive spots, and developed by the ascending technique, without preconditioning. Chromatography was performed in a normal developing chamber at room temperature (~24 °C), the developing distance being of 9 cm. The solvent system used as mobile phase consisted of a water-i-propanol mixture, with a varying content of organic modifier (i-propanol—concentration ranged between 45% and 65% (v/v), with 5% vol. increments). Before the development, the chamber was saturated with the mobile phase for 15 min. After being developed, the dried plates were visually inspected under the UV light (λ = 254 nm), each spot was clearly marked and its distance was manually measured in order to calculate the Rf values. The spots of the compounds 3f, 10 and 11 were not visible in UV light, thus their Rf values could not be calculated, therefore they were excluded from this assay.
Based on the Rf values, one of the most common lipophilic estimator, meaning the isocratic retention factor RM was calculated using the Bate-Smith and Westall equations [40].
RP-TLC provides retention data in the form of Rf and the corresponding RM values (Equation (2)) that can be used to derive chromatographic descriptors for estimating lipophilicity: RM0, b and PCA. The most popular lipophilicity descriptor estimated by this method is RM and it is derived from the retention factor (Rf) according to the following formula: RM = log[(1/Rf) − 1] (2) where Rf is calculated on the basis of migration distance of a compound and the solvent front.
As RM value (related to the molecular lipophilicity) depends linearly on the concentration of the organic modifier in the mobile phase, the value is extrapolated to pure water as mobile phase. In order to increase the accuracy of the lipophilicity determination, the RM values extrapolated to zero organic modifier concentration (RM0) have been calculated from the linear correlation between the RM values and the concentration of the organic component of the mobile phase: RM = RM0 + bc (3) where RM0 is the lipophilicity estimation parameter, RM is the retention of the solute, b is the slope, and c is the concentration of the mobile phase organic modifier (i-propanol).
The intercept (RM0) in Equation (3) represents the extrapolated RM values at 0% organic modifier.
PCA was performed on the obtained retention parameters with the help of XL-STAT extension. […] PCA gave the coordinates (scores) of the studied compounds and also the loadings of the variables (solvents) on the principal components.

Each structure is given as a SMILES string. ≈ marks a conversion by molar mass, not a printed value.

Broadly, the MFC is the smallest concentration meeting the test's criterion for killing the fungus. The MIC is the least concentration at which growth counts as inhibited. With `CNC1=NC(=O)CS1` [Compound 10, 2-(methylamino)thiazol-4(5H)-one], the “fold more active than fluconazole” value in the series with four strains of Candida is given as “over 500 fold”. The MFC came to 0.015 µg/mL (≈ 0.115 µM) with four strains of Candida; 0.03 µg/mL (≈ 0.23 µM) in series [2]; 0.015 µg/mL (≈ 0.115 µM) in the series with Candida krusei ATCC 6258; 0.015 µg/mL (≈ 0.115 µM) in series [3]; 0.03 µg/mL (≈ 0.23 µM) in series [4]. Also, the MIC (with four strains of Candida; in series [2]; with Candida krusei ATCC 6258; in series [3]; in series [4]) was 0.015 µg/mL (≈ 0.115 µM) each time. Moreover, the zone of inhibition at 1000 µg/mL in series [1] came to 22 ± 1 mm.
The melting point is the temperature, or range, at which the solid turns liquid. `C=CCNC1=NC(=O)C(=Cc2ccc(O)cc2)S1` [Compound 3h, 2-(Allylamino)-5-(4-hydroxybenzylidene)thiazol-4(5H)-one] gave a melting point of 338 °C. Also, the zone of inhibition at 1000 µg/mL in series [1] was 20 ± 0.5 mm. Also, in series [5], the RM0 is 1.1465, the b is listed as −2.6897, the P1 came out at 2.905 and the P2 is given as 0.056. In addition, in series [2], the MFC was found to be 0.48 µg/mL (≈ 1.84 µM) and the minimal inhibitory concentration (MIC) turned out to be 0.24 µg/mL (≈ 0.922 µM). Also, in the series with Candida krusei ATCC 6258, the MFC was found to be 0.97 µg/mL (≈ 3.73 µM) and the MIC was 0.24 µg/mL (≈ 0.922 µM). Moreover, in series [3], the MFC was 0.97 µg/mL (≈ 3.73 µM) and the minimal inhibitory concentration (MIC) was determined as 0.12 µg/mL (≈ 0.461 µM). In addition, in series [4], the MFC amounted to 0.97 µg/mL (≈ 3.73 µM) and the MIC amounted to 0.48 µg/mL (≈ 1.84 µM).
In turn, `C=CCNC1=NC(=O)C(=Cc2ccc(O)c(OC)c2)S1` [Compound 3g, 2-(Allylamino)-5-(4-hydroxy-3-methoxybenzylidene)thiazol-4(5H)-one] came in with a melting point of 240 °C. In series [1], the zone of inhibition at 1000 µg/mL was 22 ± 0.2 mm. In series [5], the RM0 is reported as 0.6734, the b is −1.9546, the P1 was 3.365 and the P2 is 0.453. Moreover, in series [2], the MFC came out at 1.95 µg/mL (≈ 6.72 µM) and the MIC was determined as 0.48 µg/mL (≈ 1.65 µM). Moreover, in the series on Candida krusei ATCC 6258, the MFC is 1.95 µg/mL (≈ 6.72 µM) and the MIC was determined as 0.48 µg/mL (≈ 1.65 µM). Besides, in series [3], the MFC was found to be 0.48 µg/mL (≈ 1.65 µM) and the MIC is 0.24 µg/mL (≈ 0.827 µM). For the same compound, in series [4], the minimum fungicidal concentration (MFC) came out at 0.97 µg/mL (≈ 3.34 µM) and the MIC came to 0.48 µg/mL (≈ 1.65 µM).
For `OC(Cn1cncn1)(Cn1cncn1)c1ccc(F)cc1F` [Fluconazole, reference compound], the MFC with four strains of Candida was 15.6 to 31.2 µg/mL (≈ 51 to 102 µM); in series [2], 31.2 µg/mL (≈ 102 µM); with Candida krusei ATCC 6258, 31.2 µg/mL (≈ 102 µM); in series [3] it was 15.6 µg/mL (≈ 51 µM); in series [4], 31.2 µg/mL (≈ 102 µM). For the same compound, the MIC in the series with four strains of Candida is 7.81 to 15.6 µg/mL (≈ 25.5 to 51 µM); in series [2], 15.6 µg/mL (≈ 51 µM); in the series with Candida krusei ATCC 6258 it was 15.6 µg/mL (≈ 51 µM); in series [3] it was 7.81 µg/mL (≈ 25.5 µM); in series [4], 15.6 µg/mL (≈ 51 µM). Also, the zone of inhibition at 1000 µg/mL in series [1] was 22 ± 0.5 mm.
Regarding `CC(=O)N1CCN(c2ccc(OCC3COC(Cn4ccnc4)(c4ccc(Cl)cc4Cl)O3)cc2)CC1` (stereo not drawn) [Ketoconazole, reference compound], the MFC is 7.81 to 15.6 µg/mL (≈ 14.7 to 29.4 µM) in the series with four strains of Candida; 15.6 µg/mL (≈ 29.4 µM) in series [2]; 15.6 µg/mL (≈ 29.4 µM) in the series on Candida krusei ATCC 6258; 7.81 µg/mL (≈ 14.7 µM) in series [3]; 15.6 µg/mL (≈ 29.4 µM) in series [4]. Further, the MIC in the series on four strains of Candida was 3.9 to 7.81 µg/mL (≈ 7.34 to 14.7 µM); in series [2], 7.81 µg/mL (≈ 14.7 µM); in the series with Candida krusei ATCC 6258, 7.81 µg/mL (≈ 14.7 µM); in series [3], 3.9 µg/mL (≈ 7.34 µM); in series [4], 7.81 µg/mL (≈ 14.7 µM).
The compound `O=C1N=C(Nc2cccc3ccccc23)SC1=Cc1ccc(Cl)cc1Cl` [Compound 9b, 5-(2,4-Dichlorobenzylidene)-2-(naphthalen-1-ylamino)thiazol-4(5H)-one] had a melting point of 185 °C. Also, in the series on four strains of Candida, the “fold more active than fluconazole” value is “over 500 fold”, the MFC stood at 0.015 µg/mL (≈ 0.0376 µM) and the MIC worked out at 0.015 µg/mL (≈ 0.0376 µM). Moreover, in series [1], the zone of inhibition at 1000 µg/mL was 18 ± 0.2 mm. Besides, in series [5], the RM0 is given as 2.9283, the b was −4.3675, the P1 was −2.876 and the P2 amounted to 0.232. In series [2], the MFC was 0.03 µg/mL (≈ 0.0751 µM) and the MIC turned out to be 0.015 µg/mL (≈ 0.0376 µM). Also, in the series with Candida krusei ATCC 6258, the minimum fungicidal concentration (MFC) was determined as 0.015 µg/mL (≈ 0.0376 µM) and the MIC came to 0.015 µg/mL (≈ 0.0376 µM). For the same compound, in series [3], the MFC came out at 0.015 µg/mL (≈ 0.0376 µM) and the MIC amounted to 0.015 µg/mL (≈ 0.0376 µM). Also, in series [4], the MFC came to 0.03 µg/mL (≈ 0.0751 µM) and the MIC was 0.015 µg/mL (≈ 0.0376 µM).
